Experimental data: patent publication US11505533B2, “Metabolically stable N-acylaminooxadiazoles useful as antibacterial agents” (MICROBIOTIX, INC., priority 2017, dated 2022)
≈ marks a conversion by molar mass, not a printed value.

Tests used:
[1] = Microsomal stability + NADPH; settings: mouse liver microsomes, 0.5 hr at 37° C.
[2] = system: E. coli TolC(−); assay: TolC(−) MIC (NB); type: cell-based; settings: Escherichia coli, read-out: TolC(−) MIC (μM)(NB)
[3] = system: E. coli TolC(−); settings: MIC in the presence of 10% fetal calf serum versus without
[4] = Mammalian cell cytotoxicity
[5] = Aqueous solubility, nephelometry; settings: water, kinetic from dmso stock
[6] = Mouse serum binding, equilibrium dialysis
[7] = Mouse serum stability; settings: 5 μM, 37° C., 4 h
[8] = Caco-2 permeability; type: in vitro ADME; settings: human, direction not given
Text: Res., 15(5): 726-733 (1998).

Structure (SMILES)	MIC [2] [µM]	Fold Serum Shift vs. TolC(−) [3] [fold]	further results
Cc1cccc(-c2nnc(NC(=O)c3ccc(Oc4ccccc4)nc3)o2)c1 [compound 4499]	1.56 (≈ 0.581 µg/mL)	20	Microsomal Stability + NADPH % degraded [1]: 19%; CC50 [4]: > 100 µM; solubility [5]: 25 µM (≈ 9.31 µg/mL); fraction unbound [6]: < 0.01
O=C(Nc1nnc(-c2ccc(F)cc2)o1)N1CCC(Cl)=C(Cl)C1 [compound 4737]	0.78 (≈ 0.279 µg/mL)	32	Microsomal Stability + NADPH % degraded [1]: 21%; Serum Stability (% remain) [7]: >95%; CC50 [4]: > 100 µM; solubility [5]: 6.3 µM (≈ 2.25 µg/mL); fraction unbound [6]: < 0.01
O=C(Nc1nnc(C2CCCCC2)o1)c1ccc(Oc2ccccc2)nc1 [compound 4780]	1.24 (≈ 0.452 µg/mL)		fraction unbound [6]: 0.005
O=C(Nc1nnc(C2CCCCC2)o1)c1ccc(Oc2cccc(O)c2)cc1 [compound 4801]	3.13 (≈ 1.19 µg/mL)	16	Papp [8]: 13.2 ×10⁻⁶ cm/s; Serum Stability (% remain) [7]: >95%; solubility [5]: 12.5 µM (≈ 4.74 µg/mL)
O=C(Nc1nnc(C2CCCCC2)o1)N1CCC(Cl)=C(Cl)C1 [compound 4808]	6.25 (≈ 2.16 µg/mL)		Papp [8]: 24.5 ×10⁻⁶ cm/s; Serum Stability (% remain) [7]: >95%
O=C(Nc1nnc(-c2ccc(F)cc2)o1)N1CC(C(F)(F)F)C(C(F)(F)F)C1 (stereo not shown) [compound 4839]	3.13 (≈ 1.29 µg/mL)	12.5	Serum Stability (% remain) [7]: >95%; solubility [5]: 6.25 µM (≈ 2.58 µg/mL)
O=C(Nc1nnc(-c2ccc(F)cc2)o1)N1CCC(C(F)(F)F)CC1 [compound 4840]	6.25 (≈ 2.24 µg/mL)	4	
CC(C)(C)C1=CCN(C(=O)Nc2nnc(-c3ccc(F)cc3)o2)CC1 [compound 4841]	6.25 (≈ 2.15 µg/mL)	8	
O=C(Nc1nnc(-c2ccc(F)cc2)o1)N1CCC2(CCC2)CC1 [compound 4842]	6.25 (≈ 2.06 µg/mL)	4	Serum Stability (% remain) [7]: 77%
CC1=C(Br)CN(C(=O)Nc2nnc(-c3ccc(F)cc3)o2)CC1 [compound 4923]	0.78 (≈ 0.297 µg/mL)	18	Serum Stability (% remain) [7]: >95%
O=C(Nc1nnc(-c2ccc(F)cc2)o1)N1CCC(c2ccccc2)CC1 [compound 5199]	5.57 (≈ 2.04 µg/mL)		
C[C@@H]1CCCN(C(=O)Nc2nnc(-c3ccc(F)cc3)o2)C1 [compound 5200]	12.5 (≈ 3.8 µg/mL)		
O=C(Nc1nnc(-c2ccc(F)cc2)o1)N1CCCC(O)C1 (stereo not shown) [compound 5201]	> 100		
Cc1cc(F)cc(C)c1-c1nnc(NC(=O)N2CCc3ccccc3C2)o1 [compound 5202]	7.02 (≈ 2.57 µg/mL)		
Cc1cc(F)cc(C)c1-c1nnc(NC(=O)N2CCC(Cl)=C(Cl)C2)o1 [compound 5203]	0.781 (≈ 0.301 µg/mL)		
Cc1cc(F)cc(C)c1-c1nnc(NC(=O)N2CC=C(C(F)(F)F)CC2)o1 [compound 5204]	4.96 (≈ 1.91 µg/mL)		
CC(C)C1CCCN(C(=O)Nc2nnc(-c3ccc(F)cc3)o2)C1 (stereo not shown) [compound 5212]	7.02 (≈ 2.33 µg/mL)		
Cc1ccccc1-c1nnc(NC(=O)N2CCc3ccccc3C2)o1 [compound 5214]	7.02 (≈ 2.35 µg/mL)		
Cc1ccccc1-c1nnc(NC(=O)N2CCC(Cl)=C(Cl)C2)o1 [compound 5215]	1.56 (≈ 0.551 µg/mL)		
CC1=CCN(C(=O)Nc2nnc(-c3c(C)cc(F)cc3C)o2)CC1 [compound 5216]	12.5 (≈ 4.13 µg/mL)		
O=C(Nc1nnc(-c2ccc(N3CCCC3)cc2)o1)N1CCc2ccccc2C1 [compound 5222]	25 (≈ 9.74 µg/mL)		
O=C(Nc1nnc(-c2ccc(N3CCCC3)cc2)o1)N1CC=C(C(F)(F)F)CC1 [compound 5223]	11.1 (≈ 4.54 µg/mL)		
